The results in this text go back to patent US12077503B2, “Substituted cyclic amides and their use as herbicides” (FMC CORPORATION, priority 2015, dated 2024).

Like-named read-outs stand apart in the source and are kept apart here.

Common to all, as to format: in vivo
Assay [1] concerns pigweed (Amaranthus retroflexus). The assay can be described thus: Test A preemergence. The note with it: Amaranthus retroflexus, pre-emergence, 240 h; for pest or weed control at 125 g/ha: 125 g ai/ha; for pest or weed control at 500 g/ha: 500 g ai/ha.
For assay [2], the system named is Galium (catchweed bedstraw, Galium aparine). Kind of assay: Test A postemergence. The following applies: Galium, post-emergence, 240 h; for pest or weed control at 125 g/ha: 125 g ai/ha. A digest of the protocol:
(§1)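 Seeded soil received test chemicals as a preemergence directed spray, and seedlings at one to two leaves, 2–10 cm tall, received them postemergence, in a non-phytotoxic, surfactant-containing solvent mixture. Pots were held in a greenhouse for approximately 10 d, then rated for injury from 0, no effect, to 100, complete control.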

Assay [3] concerns Kochia (Kochia scoparia). Kind of assay: Test A postemergence. The following applies: Bassia scoparia, post-emergence, 240 h; for pest or weed control at 125 g/ha: 125 g ai/ha. Summed up: as §1
Assay [4] deals with pigweed (Amaranthus retroflexus). Kind of assay: Test A postemergence. The note with it: Amaranthus retroflexus, post-emergence, 240 h; for pest or weed control at 125 g/ha: 125 g ai/ha. A digest of the protocol: as §1
Assay [5] relates to blackgrass (Alopecurus myosuroides). The assay can be described thus: Test A postemergence. The note with it: Alopecurus myosuroides, post-emergence, 240 h; for pest or weed control at 125 g/ha: 125 g ai/ha. Summed up: as §1
Assay [6] has as its system ragweed (common ragweed, Ambrosia elatior). The assay can be described thus: Test A postemergence. The following applies: Ambrosia artemisiifolia, post-emergence, 240 h; for pest or weed control at 125 g/ha: 125 g ai/ha. Summed up:
as §1

For assay [7], the system named is corn (Zea mays). Kind of assay: Test A postemergence. The note with it: Zea mays, post-emergence, 240 h. A digest of the protocol:
as §1

Assay [8] deals with giant foxtail (Setaria faberii). Kind of assay: Test A postemergence. The note with it: Setaria faberi, post-emergence, 240 h; for pest or weed control at 125 g/ha: 125 g ai/ha. A digest of the protocol: as §1
For assay [9], the system named is wheat (Triticum aestivum). Kind of assay: Test A postemergence. The note with it: Triticum aestivum, post-emergence, 240 h; for plant injury at 125 g/ha: 125 g ai/ha. A digest of the protocol: as §1
For assay [10], the system named is ryegrass, Italian (Italian ryegrass, Lolium multiflorum). Kind of assay: Test A postemergence. The note with it: Lolium multiflorum, post-emergence, 240 h; for pest or weed control at 125 g/ha: 125 g ai/ha. A digest of the protocol:
as §1

For assay [11], the system named is barnyardgrass (Echinochloa crus-galli). The assay can be described thus: Test A postemergence. The following applies: Echinochloa crus-galli, post-emergence, 240 h; for pest or weed control at 125 g/ha: 125 g ai/ha. Summed up:
as §1

Assay [12] deals with rice (Oryra sativa). The assay can be described thus: Test B flooded paddy test. The note with it: Oryza sativa, 250 g ai/ha, Flood, read-out: Rice plant response rating. A digest of the protocol: (§2)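 Plants at 2-leaf stage flooded to 3 cm above soil, with compounds applied directly to paddy water and that depth maintained. Plants kept in greenhouse 13–15 d. Visual rating versus controls on a 0 (no effect) to 100 (complete control) scale.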

The test system of assay [13] is barnyardgrass (Echinochloa crus-galli). Kind of assay: Test B flooded paddy test. The note with it: Echinochloa crus-galli, 250 g ai/ha, Flood, read-out: Barnyardgrass plant response rating. Summed up:
as §2

Assay [14] relates to sedge, umbrella (small-flower umbrella sedge, Cyperus difformis). Kind of assay: Test B flooded paddy test. The note with it: Cyperus difformis, 250 g ai/ha, Flood, read-out: Sedge, Umbrella plant response rating. Summed up: as §2
Assay [15] concerns ducksalad (Heteranthera limosa). Kind of assay: Test B flooded paddy test. The following applies: Heteranthera limosa, 250 g ai/ha, Flood, read-out: Ducksalad plant response rating. Summed up:
as §2

Setting [16] is: preemergence, 0 to 100 scale where 0 is no effect and 100 is complete control, read-out: Pigweed plant response rating.
[17] abbreviates: 0 to 100 scale where 0 is no effect and 100 is complete control.
[18] abbreviates: scale of 0 to 100 where 0 is no effect and 100 is complete control.

As for `CCc1cc(CC)cc([C@H]2CNC(=O)[C@@H]2C(=O)Nc2cccc(F)c2F)c1` [Compound 1139], the pest or weed control at 125 g/ha in [1] (preemergence, 0 to 100 scale where 0 is no effect and 100 is complete control, approx. 10 d, read-out: Pigweed plant response rating) came out at 0%; in [2] (postemergence, visual injury on 0 to 100 scale (0 no effect, 100 complete control), approx. 10 d, read-out: Galium plant response rating) it was 50%; in [3] (postemergence, visual injury on 0 to 100 scale (0 no effect, 100 complete control), approx. 10 d, read-out: Kochia plant response rating), 0%; in assay [4] (postemergence, visual injury on 0 to 100 scale (0 no effect, 100 complete control), approx. 10 d, read-out: Pigweed plant response rating), 0%; in assay [5] (postemergence, visual injury on 0 to 100 scale (0 no effect, 100 complete control), approx. 10 d, read-out: Blackgrass plant response rating) it was 40%; in assay [6] (postemergence, visual injury on 0 to 100 scale (0 no effect, 100 complete control), approx. 10 d, read-out: Ragweed plant response rating), 0%. Further, the pest or weed control at 125 g/ha in assay [8] (postemergence, visual injury on 0 to 100 scale (0 no effect, 100 complete control), approx. 10 d, read-out: Foxtail, Giant plant response rating) was determined as 40%; in assay [10] (postemergence, visual injury on 0 to 100 scale (0 no effect, 100 complete control), approx. 10 d, read-out: Ryegrass, Italian plant response rating), 40%; in assay [11] (postemergence, visual injury on 0 to 100 scale (0 no effect, 100 complete control), approx. 10 d, read-out: Barnyardgrass plant response rating), 60%. Also, the pest or weed control at 500 g/ha came to 0% in [1] (setting [16]); 60% in assay [2] (500 g ai/ha, postemergence, 0 to 100 scale, 0 is no effect, 100 is complete control, read-out: Galium plant response rating); 0% in assay [3] (500 g ai/ha, postemergence, 0 to 100 scale, 0 is no effect, 100 is complete control, read-out: Kochia plant response rating); 0% in assay [4] (500 g ai/ha, postemergence, 0 to 100 scale, 0 is no effect, 100 is complete control, read-out: Pigweed plant response rating); 60% in assay [5] (500 g ai/ha, postemergence, 0 to 100 scale, 0 is no effect, 100 is complete control, read-out: Blackgrass plant response rating); 40% in assay [6] (500 g ai/ha, postemergence, 0 to 100 scale, 0 is no effect, 100 is complete control, read-out: Ragweed plant response rating). Also, the pest or weed control at 500 g/ha in assay [8] (500 g ai/ha, postemergence, 0 to 100 scale, 0 is no effect, 100 is complete control, read-out: Foxtail, Giant plant response rating) worked out at 70%; in assay [10] (500 g ai/ha, postemergence, 0 to 100 scale, 0 is no effect, 100 is complete control, read-out: Ryegrass, Italian plant response rating) it was 50%; in assay [11] (500 g ai/ha, postemergence, 0 to 100 scale, 0 is no effect, 100 is complete control, read-out: Barnyardgrass plant response rating), 90%. The plant injury at 125 g/ha was 60% in assay [7] (125 g ai/ha, postemergence, visual injury on 0 to 100 scale (0 no effect, 100 complete control), approx. 10 d, read-out: Corn plant response rating) and 50% in assay [9] (postemergence, visual injury on 0 to 100 scale (0 no effect, 100 complete control), approx. 10 d, read-out: Wheat plant response rating). The plant injury at 500 g/ha worked out at 80% in assay [7] (500 g ai/ha, postemergence, 0 to 100 scale, 0 is no effect, 100 is complete control, read-out: Corn plant response rating) and 70% in [9] (500 g ai/ha, postemergence, 0 to 100 scale, 0 is no effect, 100 is complete control, read-out: Wheat plant response rating). The pest or weed control at 250 g/ha in assay [12] (setting [17]) came out at 20%; in [13] (setting [17]), 0%; in assay [14] (setting [17]) it was 0%; in [15] (setting [17]) it was 30%.
With `COc1ccc(CN2CC[C@H](c3ccc(F)cc3)[C@@H](C(=O)Nc3cccc(F)c3F)C2=O)cc1` [Compound 919], the pest or weed control at 125 g/ha in assay [1] (setting [16]) was found to be 0%; in [2] (Postemergence, visual injury after approximately 10 d, 0 to 100 scale where 0 is no effect and 100 is complete control, read-out: Plant response rating, Galium) it was 0%; in [3] (Postemergence, visual injury after approximately 10 d, 0 to 100 scale where 0 is no effect and 100 is complete control, read-out: Plant response rating, Kochia) it was 0%; in [4] (Postemergence, visual injury after approximately 10 d, 0 to 100 scale where 0 is no effect and 100 is complete control, read-out: Plant response rating, Pigweed), 0%; in assay [5] (Postemergence, visual injury after approximately 10 d, 0 to 100 scale where 0 is no effect and 100 is complete control, read-out: Plant response rating, Blackgrass) it was 0%; in assay [6] (Postemergence, visual injury after approximately 10 d, 0 to 100 scale where 0 is no effect and 100 is complete control, read-out: Plant response rating, Ragweed), 0%. For the same molecule, the pest or weed control at 125 g/ha worked out at 0% in assay [8] (Postemergence, visual injury after approximately 10 d, 0 to 100 scale where 0 is no effect and 100 is complete control, read-out: Plant response rating, Foxtail, Giant); 0% in [10] (Postemergence, visual injury after approximately 10 d, 0 to 100 scale where 0 is no effect and 100 is complete control, read-out: Plant response rating, Ryegrass, Italian); 0% in assay [11] (Postemergence, visual injury after approximately 10 d, 0 to 100 scale where 0 is no effect and 100 is complete control, read-out: Plant response rating, Barnyardgrass). In addition, the pest or weed control at 500 g/ha in assay [1] (Preemergence, visual injury vs untreated controls after approximately 10 d, read-out: Pigweed plant response rating (0 to 100 scale where 0 is no effect and 100 is complete control)) was 0%. For the same molecule, the Corn plant response rating (crop injury, 0 = no effect, 100 = complete kill) at 125 g/ha in assay [7] (125 g ai/ha, Postemergence, visual injury after approximately 10 d, 0 to 100 scale where 0 is no effect and 100 is complete control) was determined as 0%. The plant injury at 125 g/ha in assay [9] (Postemergence, visual injury after approximately 10 d, 0 to 100 scale where 0 is no effect and 100 is complete control, read-out: Plant response rating, Wheat) stood at 0%. In addition, the pest or weed control at 250 g/ha in assay [12] (setting [18]), in assay [13] (setting [18]), in assay [14] (setting [18]) and in assay [15] (setting [18]) was 0% throughout.
